Laboratory results published in patent publication EP0202903A2, “Control of ectoparasites” (priority 1985, dated 1986).

System: guinea pigs
Assay: Guinea pig systemic test: death of the treated guinea pig before blood sampling
Type: in vivo
Method: Adult guinea pigs were used in this test system. The compounds to be tested were dissolved in aqueous polyvinyl pyrrolidone or in polyethylene glycol 200, and an appropriate amount of the solution was administered by intraperitoneal injection. Various doses of the compound were used, as named in the tables below.
Blood was drawn from the guinea pigs at different times, shown in the tables below, and the samples of blood were centrifuged. Dental wicks were saturated with the blood serum, and were then exposed in Petri dishes to adult stable flies or adult house flies; blow fly larvae were exposed in test tubes. Various species were used in various tests. After 24 hours, the insects were examined, and the number of dead were counted.

[1] = 100 mg./kg. intraperitoneal, sampling at 24 hours
[2] = 10 mg./kg. intraperitoneal, sampling at 6 hours
[3] = 10 mg./kg. intraperitoneal, sampling at 24 hours
[4] = 25 mg./kg. intraperitoneal, sampling at 6 hours
[5] = 25 mg./kg. intraperitoneal, sampling at 48 hours
[6] = 25 mg./kg. intraperitoneal, sampling at 2 hours

Measured: Dead (guinea pig died before its blood was sampled)

O=C(CC(=O)C(F)(F)C(F)(F)C(F)(F)F)c1ccc([N+](=O)[O-])cc1.[Na] [Example 4, 1-(4-Nitrophenyl)-3-perfluoropropyl-1,3-propanedione, sodium salt]
Dead: [1]

O=C(CC(=O)C(F)(F)C(F)(F)C(F)(F)F)c1ccc(Cl)s1 [Example 1, 1-(5-Chlorothien-2-yl)-3-perfluoropropyl-1,3-propanedione]
Dead: 5 mg./kg. intraperitoneal, sampling at 24 hours | [2] | [3] | 10 mg./kg. intraperitoneal, sampling at 48 hours | 25 mg./kg. intraperitoneal, sampling at 4 hours | [4] | 30 mg./kg. intraperitoneal, sampling at 6 hours | 40 mg./kg. intraperitoneal, sampling at 6 hours | 50 mg./kg. intraperitoneal, sampling at 4 hours | 50 mg./kg. intraperitoneal, sampling at 6 hours | 50 mg./kg. intraperitoneal, sampling at 24 hours | [1]

O=C(CC(=O)C1(F)C(F)(F)C(F)(F)C(F)(F)C(F)(F)C1(F)F)c1ccc(Cl)s1 [Example 5, 1-(5-Chlorothien-2-yl)-3-perfluorocyclo-hexyl-1,3-propanedione]
Dead: 25 mg./kg. intraperitoneal, sampling at 5 hours

O=C(CC(=O)C(F)(F)C(F)(F)C(F)(F)F)c1cccc(C(F)(F)F)c1.[Na] [Example 12, 1-Perfluoropropyl-3-(3-trifluoromethylphenyl)-1,3-propanedione, sodium salt]
Dead: [4] | [5]

O=C(CC(=O)C(F)(F)C(F)(F)C(F)(F)F)c1ccc(Cl)cc1 [Example 8, 1-(4-Chlorophenyl)-3-perfluoropropyl-1,3-propanedione]
Dead: 10 mg./kg. intraperitoneal, sampling at 5 hours | [6] | [5] | 50 mg./kg. intraperitoneal, sampling at 2 hours | 100 mg./kg. intraperitoneal, sampling at 2 hours

O=C(CC(=O)C(F)(F)C(F)(F)C(F)(F)F)c1cc(Cl)c(Cl)s1 [Example 7, l-(4,5-Dichlorothien-2-yl)-3-perfluoropropyl-1,3-propanedione]
Dead: [3]

O=C(CC(=O)C(F)(F)C(F)(F)C(F)(F)F)c1ccc(C(F)(F)F)cc1.[Na] [Example 13, 1-Perfluoropropyl-3-(4-trifluoromethylphenyl)-1,3-propanedione, sodium salt]
Dead: [6]

O=C(CC(=O)C(F)(F)C(F)(F)C(F)(F)F)c1cc(Cl)sc1Cl [Example 3, 1-(2,5-Dichlorothien-3-yl)-3-perfluoropropyl-1,3-propanedione]
Dead: [3] | [4] | 25 mg./kg. intraperitoneal, sampling at 24 hours

O=C(CC(=O)C(F)(F)C(F)(F)C(F)(F)F)c1ccc(C(F)(F)F)cc1 [Example 14, 1-Perfluoropropyl-3-(4-trifluoromethylphenyl)-1,3-propanedione]
Dead: 5 mg./kg. intraperitoneal, sampling at 5 hours | 5 mg./kg. intraperitoneal, sampling at 48 hours | [2] | [4]
